Measured values as given in patent publication US20110071108A1, “Beta-Cyclodextrin Derivatives as Antibacterial Agents” (Pinnacle Pharmaceuticals, Inc., priority 2005, published 2011).

Key:
Experiment in all cases: Bacterial panel testing, MIC by broth microdilution
Type in all cases: cell-based
Conditions in all cases: 20-24 hours growth
Eschericia coli = system: Eschericia coli
Experimental: (§1) One to three colonies of bacteria were picked from an Mueller-Hinton or Brain Heart infusion agar plate (depending on the bacterial strain) and transferred to 3 ml Mueller-Hinton broth or Brain Heart infusion media (depending on the bacterial strain). Bacteria were allowed to grow for 2-4 hours in an incubator at 37° C. Bacteria-inoculated media were dispersed in 0.9% saline to match McFarland standard density. 100 μl standardized inoculation was added to 20 ml media (dilution 1). 10 μl of the new dilution was added to 990 μl media and mixed (dilution 2). 10 μl of dilution 2 was spread on an agar plate and allowed to grow overnight. Colonies were then […].
(§2) Test compound was diluted to 10 μg/ml in dimethylsulfoxide. Four μl of Rifampicin antibiotic was loaded into row H, column 2.
(§3) All wells were then filled with 100 μl of inoculated media (dilution 1 from Example 1). A further 100 μl of the inoculated media was then added to column 2 and the contents are pipetted to thoroughly mix the contents. A full 100 μl was then transferred from column 2 and mixed into column 3. This process was continued from left to right until columns 2-12 were serially diluted, and the final draw from column 12 was discarded. The plates were covered with 3M sealing tape (plates containing Enterococcus faecium were sealed with Air Pore sealing tape) and allowed to grow for 20-24 hours. Cytotoxic wells (clear wells) are then scored and the potency of the compound was determined.

Salmonella choleraesuis = system: Salmonella choleraesuis
Experimental: as §1, §2, §3

Pseudomonas aeruginosa = system: Pseudomonas aeruginosa
Experimental: as §1, §2, §3

Enterococcus faecium = system: Enterococcus faecium
Experimental: as §1, §2, §3

Staphylococcus aureus = system: Staphylococcus aureus
Experimental: as §1, §2, §3

C=CCNCC1OC2OC3C(CNCC=C)OC(OC4C(CNCC=C)OC(OC5C(CNCC=C)OC(OC6C(CNCC=C)OC(OC7C(CNCC=C)OC(OC8C(CNCC=C)OC(OC1C(O)C2O)C(O)C8O)C(O)C7O)C(O)C6O)C(O)C5O)C(O)C4O)C(O)C3O (stereo not drawn)
>200 µg/mL: MIC EC (Eschericia coli) | MIC SC (Salmonella choleraesuis) | MIC PA (Pseudomonas aeruginosa) | MIC EF (Enterococcus faecium) | MIC SA (Staphylococcus aureus)

Cl.Cl.Cl.Cl.Cl.Cl.Cl.NC(CO)C(=O)NCC1OC2OC3C(CNC(=O)C(N)CO)OC(OC4C(CNC(=O)C(N)CO)OC(OC5C(CNC(=O)C(N)CO)OC(OC6C(CNC(=O)C(N)CO)OC(OC7C(CNC(=O)C(N)CO)OC(OC8C(CNC(=O)C(N)CO)OC(OC1C(O)C2O)C(O)C8O)C(O)C7O)C(O)C6O)C(O)C5O)C(O)C4O)C(O)C3O (stereo not drawn)
>200 µg/mL: MIC EC (Eschericia coli) | MIC SC (Salmonella choleraesuis) | MIC PA (Pseudomonas aeruginosa) | MIC SA (Staphylococcus aureus)

CC(C)(C)OC(=O)NCCCC[C@H](NC(=O)[C@@H](N)CCCCNC(=O)OC(C)(C)C)C(=O)NCC1OC2OC3C(CNC(=O)[C@H](CCCCNC(=O)OC(C)(C)C)NC(=O)[C@@H](N)CCCCNC(=O)OC(C)(C)C)OC(OC4C(CNC(=O)[C@H](CCCCNC(=O)OC(C)(C)C)NC(=O)[C@@H](N)CCCCNC(=O)OC(C)(C)C)OC(OC5C(CNC(=O)[C@H](CCCCNC(=O)OC(C)(C)C)NC(=O)[C@@H](N)CCCCNC(=O)OC(C)(C)C)OC(OC6C(CNC(=O)[C@H](CCCCNC(=O)OC(C)(C)C)NC(=O)[C@@H](N)CCCCNC(=O)OC(C)(C)C)OC(OC7C(CNC(=O)[C@H](CCCCNC(=O)OC(C)(C)C)NC(=O)[C@@H](N)CCCCNC(=O)OC(C)(C)C)OC(OC8C(CNC(=O)[C@H](CCCCNC(=O)OC(C)(C)C)NC(=O)[C@@H](N)CCCCNC(=O)OC(C)(C)C)OC(OC1C(O)C2O)C(O)C8O)C(O)C7O)C(O)C6O)C(O)C5O)C(O)C4O)C(O)C3O (stereo partly drawn)
>200 µg/mL: MIC EC (Eschericia coli) | MIC SC (Salmonella choleraesuis) | MIC PA (Pseudomonas aeruginosa) | MIC EF (Enterococcus faecium) | MIC SA (Staphylococcus aureus)

C[C@H](N)C(=O)NC[C@H]1O[C@@H]2O[C@H]3[C@H](O)[C@@H](O)[C@@H](O[C@H]4[C@H](O)[C@@H](O)[C@@H](O[C@H]5[C@H](O)[C@@H](O)[C@@H](O[C@H]6[C@H](O)[C@@H](O)[C@@H](O[C@H]7[C@H](O)[C@@H](O)[C@@H](O[C@H]8[C@H](O)[C@@H](O)[C@@H](O[C@H]1[C@H](O)[C@H]2O)O[C@@H]8CNC(=O)[C@H](C)N)O[C@@H]7CNC(=O)[C@H](C)N)O[C@@H]6CNC(=O)[C@H](C)N)O[C@@H]5CNC(=O)[C@H](C)N)O[C@@H]4CNC(=O)[C@H](C)N)O[C@@H]3CNC(=O)[C@H](C)N.Cl.Cl.Cl.Cl.Cl.Cl.Cl
>200 µg/mL: MIC EC (Eschericia coli) | MIC SC (Salmonella choleraesuis) | MIC PA (Pseudomonas aeruginosa) | MIC EF (Enterococcus faecium) | MIC SA (Staphylococcus aureus)

Cl.Cl.Cl.Cl.Cl.Cl.Cl.NC(CCC(=O)OCc1ccccc1)C(=O)NCC1OC2OC3C(CNC(=O)C(N)CCC(=O)OCc4ccccc4)OC(OC4C(CNC(=O)C(N)CCC(=O)OCc5ccccc5)OC(OC5C(CNC(=O)C(N)CCC(=O)OCc6ccccc6)OC(OC6C(CNC(=O)C(N)CCC(=O)OCc7ccccc7)OC(OC7C(CNC(=O)C(N)CCC(=O)OCc8ccccc8)OC(OC8C(CNC(=O)C(N)CCC(=O)OCc9ccccc9)OC(OC1C(O)C2O)C(O)C8O)C(O)C7O)C(O)C6O)C(O)C5O)C(O)C4O)C(O)C3O (stereo not drawn)
>200 µg/mL: MIC EC (Eschericia coli) | MIC SC (Salmonella choleraesuis) | MIC PA (Pseudomonas aeruginosa) | MIC EF (Enterococcus faecium) | MIC SA (Staphylococcus aureus)

O=C(C[n+]1ccccc1)NCC1OC2OC3C(CNC(=O)C[n+]4ccccc4)OC(OC4C(CNC(=O)C[n+]5ccccc5)OC(OC5C(CNC(=O)C[n+]6ccccc6)OC(OC6C(CNC(=O)C[n+]7ccccc7)OC(OC7C(CNC(=O)C[n+]8ccccc8)OC(OC8C(CNC(=O)C[n+]9ccccc9)OC(OC1C(O)C2O)C(O)C8O)C(O)C7O)C(O)C6O)C(O)C5O)C(O)C4O)C(O)C3O.[Cl-].[Cl-].[Cl-].[Cl-].[Cl-].[Cl-].[Cl-] (stereo not drawn)
>200 µg/mL: MIC EC (Eschericia coli) | MIC SC (Salmonella choleraesuis) | MIC PA (Pseudomonas aeruginosa) | MIC EF (Enterococcus faecium) | MIC SA (Staphylococcus aureus)

Cl.Cl.Cl.Cl.Cl.Cl.Cl.N=C(N)NCCCCSCC1OC2OC3C(CSCCCCNC(=N)N)OC(OC4C(CSCCCCNC(=N)N)OC(OC5C(CSCCCCNC(=N)N)OC(OC6C(CSCCCCNC(=N)N)OC(OC7C(CSCCCCNC(=N)N)OC(OC8C(CSCCCCNC(=N)N)OC(OC1C(O)C2O)C(O)C8O)C(O)C7O)C(O)C6O)C(O)C5O)C(O)C4O)C(O)C3O (stereo not drawn)
>200 µg/mL: MIC EC (Eschericia coli) | MIC SC (Salmonella choleraesuis) | MIC PA (Pseudomonas aeruginosa) | MIC EF (Enterococcus faecium) | MIC SA (Staphylococcus aureus)

Cl.Cl.Cl.Cl.Cl.Cl.NCCCCCCSCC1OC2OC3C(CSCCCCCCN)OC(OC4C(CSCCCCCCN)OC(OC5C(CSCCCCCCN)OC(OC6C(CSCCCCCCN)OC(OC7C(CSCCCCCCN)OC(OC1C(O)C2O)C(O)C7O)C(O)C6O)C(O)C5O)C(O)C4O)C(O)C3O (stereo not drawn)
>200 µg/mL: MIC EC (Eschericia coli) | MIC SC (Salmonella choleraesuis) | MIC EF (Enterococcus faecium) | MIC SA (Staphylococcus aureus)

COC(=O)c1cccc(NCC2OC3OC4C(CNc5cccc(C(=O)OC)c5)OC(OC5C(CNc6cccc(C(=O)OC)c6)OC(OC6C(CNc7cccc(C(=O)OC)c7)OC(OC7C(CNc8cccc(C(=O)OC)c8)OC(OC8C(CNc9cccc(C(=O)OC)c9)OC(OC9C(CNc%10cccc(C(=O)OC)c%10)OC(OC2C(O)C3O)C(O)C9O)C(O)C8O)C(O)C7O)C(O)C6O)C(O)C5O)C(O)C4O)c1 (stereo not drawn)
>200 µg/mL: MIC EC (Eschericia coli) | MIC SC (Salmonella choleraesuis) | MIC PA (Pseudomonas aeruginosa) | MIC SA (Staphylococcus aureus)

CC(O)C(N)C(=O)NCC1OC2OC3C(CNC(=O)C(N)C(C)O)OC(OC4C(CNC(=O)C(N)C(C)O)OC(OC5C(CNC(=O)C(N)C(C)O)OC(OC6C(CNC(=O)C(N)C(C)O)OC(OC7C(CNC(=O)C(N)C(C)O)OC(OC8C(CNC(=O)C(N)C(C)O)OC(OC1C(O)C2O)C(O)C8O)C(O)C7O)C(O)C6O)C(O)C5O)C(O)C4O)C(O)C3O.Cl.Cl.Cl.Cl.Cl.Cl.Cl (stereo not drawn)
>200 µg/mL: MIC EC (Eschericia coli) | MIC SC (Salmonella choleraesuis) | MIC PA (Pseudomonas aeruginosa) | MIC SA (Staphylococcus aureus)

OC1C2OC(CN3CCN(C4CCCCC4)CC3)C(OC3OC(CN4CCN(C5CCCCC5)CC4)C(OC4OC(CN5CCN(C6CCCCC6)CC5)C(OC5OC(CN6CCN(C7CCCCC7)CC6)C(OC6OC(CN7CCN(C8CCCCC8)CC7)C(OC7OC(CN8CCN(C9CCCCC9)CC8)C(OC8OC(CN9CCN(C%10CCCCC%10)CC9)C(O2)C(O)C8O)C(O)C7O)C(O)C6O)C(O)C5O)C(O)C4O)C(O)C3O)C1O (stereo not drawn)
>200 µg/mL: MIC EC (Eschericia coli) | MIC SC (Salmonella choleraesuis) | MIC PA (Pseudomonas aeruginosa) | MIC EF (Enterococcus faecium)

Cl.Cl.Cl.Cl.Cl.Cl.Cl.NCCSCCCSCC1OC2OC3C(CSCCCSCCN)OC(OC4C(CSCCCSCCN)OC(OC5C(CSCCCSCCN)OC(OC6C(CSCCCSCCN)OC(OC7C(CSCCCSCCN)OC(OC8C(CSCCCSCCN)OC(OC1C(O)C2O)C(O)C8O)C(O)C7O)C(O)C6O)C(O)C5O)C(O)C4O)C(O)C3O (stereo not drawn)
>200 µg/mL: MIC SC (Salmonella choleraesuis) | MIC PA (Pseudomonas aeruginosa) | MIC EF (Enterococcus faecium) | MIC SA (Staphylococcus aureus)

Cl.Cl.Cl.Cl.Cl.Cl.Cl.N=C(N)NCCCCCCSCC1OC2OC3C(CSCCCCCCNC(=N)N)OC(OC4C(CSCCCCCCNC(=N)N)OC(OC5C(CSCCCCCCNC(=N)N)OC(OC6C(CSCCCCCCNC(=N)N)OC(OC7C(CSCCCCCCNC(=N)N)OC(OC8C(CSCCCCCCNC(=N)N)OC(OC1C(O)C2O)C(O)C8O)C(O)C7O)C(O)C6O)C(O)C5O)C(O)C4O)C(O)C3O (stereo not drawn)
>200 µg/mL: MIC EC (Eschericia coli) | MIC SC (Salmonella choleraesuis) | MIC PA (Pseudomonas aeruginosa) | MIC EF (Enterococcus faecium)

Cc1ccc(NCC2OC3OC4C(CNc5ccc(C)cc5)OC(OC5C(CNc6ccc(C)cc6)OC(OC6C(CNc7ccc(C)cc7)OC(OC7C(CNc8ccc(C)cc8)OC(OC8C(CNc9ccc(C)cc9)OC(OC9C(CNc%10ccc(C)cc%10)OC(OC2C(O)C3O)C(O)C9O)C(O)C8O)C(O)C7O)C(O)C6O)C(O)C5O)C(O)C4O)cc1 (stereo not drawn)
>200 µg/mL: MIC EC (Eschericia coli) | MIC SC (Salmonella choleraesuis) | MIC PA (Pseudomonas aeruginosa) | MIC EF (Enterococcus faecium)

CC(C)(C)OC(=O)NC(CCCN)C(=O)NCC1OC2OC3C(CNC(=O)C(CCCN)NC(=O)OC(C)(C)C)OC(OC4C(CNC(=O)C(CCCN)NC(=O)OC(C)(C)C)OC(OC5C(CNC(=O)C(CCCN)NC(=O)OC(C)(C)C)OC(OC6C(CNC(=O)C(CCCN)NC(=O)OC(C)(C)C)OC(OC7C(CNC(=O)C(CCCN)NC(=O)OC(C)(C)C)OC(OC8C(CNC(=O)C(CCCN)NC(=O)OC(C)(C)C)OC(OC1C(O)C2O)C(O)C8O)C(O)C7O)C(O)C6O)C(O)C5O)C(O)C4O)C(O)C3O.Cl.Cl.Cl.Cl.Cl.Cl.Cl (stereo not drawn)
>200 µg/mL: MIC PA (Pseudomonas aeruginosa) | MIC EF (Enterococcus faecium) | MIC SA (Staphylococcus aureus)

Cl.Cl.Cl.Cl.Cl.Cl.Cl.NCCCCCCCSCC1OC2OC3C(CSCCCCCCCN)OC(OC4C(CSCCCCCCCN)OC(OC5C(CSCCCCCCCN)OC(OC6C(CSCCCCCCCN)OC(OC7C(CSCCCCCCCN)OC(OC8C(CSCCCCCCCN)OC(OC1C(O)C2O)C(O)C8O)C(O)C7O)C(O)C6O)C(O)C5O)C(O)C4O)C(O)C3O (stereo not drawn)
>200 µg/mL: MIC SC (Salmonella choleraesuis) | MIC PA (Pseudomonas aeruginosa) | MIC EF (Enterococcus faecium) | MIC SA (Staphylococcus aureus)
